Reference: ChEMBL document CHEMBL1134117, “Synthesis of substituted 5[H]phenanthridin-6-ones as potent poly(ADP-ribose)polymerase-1 (PARP1) inhibitors” (Bioorg Med Chem Lett, 2001)

Target: Poly [ADP-ribose] polymerase 1 (Homo sapiens, UniProt P09874)
Test: Inhibitory concentration against purified recombinant human Poly (ADP-ribose) polymerase 1

Chain of Poly [ADP-ribose] polymerase 1 (P09874 whole entry): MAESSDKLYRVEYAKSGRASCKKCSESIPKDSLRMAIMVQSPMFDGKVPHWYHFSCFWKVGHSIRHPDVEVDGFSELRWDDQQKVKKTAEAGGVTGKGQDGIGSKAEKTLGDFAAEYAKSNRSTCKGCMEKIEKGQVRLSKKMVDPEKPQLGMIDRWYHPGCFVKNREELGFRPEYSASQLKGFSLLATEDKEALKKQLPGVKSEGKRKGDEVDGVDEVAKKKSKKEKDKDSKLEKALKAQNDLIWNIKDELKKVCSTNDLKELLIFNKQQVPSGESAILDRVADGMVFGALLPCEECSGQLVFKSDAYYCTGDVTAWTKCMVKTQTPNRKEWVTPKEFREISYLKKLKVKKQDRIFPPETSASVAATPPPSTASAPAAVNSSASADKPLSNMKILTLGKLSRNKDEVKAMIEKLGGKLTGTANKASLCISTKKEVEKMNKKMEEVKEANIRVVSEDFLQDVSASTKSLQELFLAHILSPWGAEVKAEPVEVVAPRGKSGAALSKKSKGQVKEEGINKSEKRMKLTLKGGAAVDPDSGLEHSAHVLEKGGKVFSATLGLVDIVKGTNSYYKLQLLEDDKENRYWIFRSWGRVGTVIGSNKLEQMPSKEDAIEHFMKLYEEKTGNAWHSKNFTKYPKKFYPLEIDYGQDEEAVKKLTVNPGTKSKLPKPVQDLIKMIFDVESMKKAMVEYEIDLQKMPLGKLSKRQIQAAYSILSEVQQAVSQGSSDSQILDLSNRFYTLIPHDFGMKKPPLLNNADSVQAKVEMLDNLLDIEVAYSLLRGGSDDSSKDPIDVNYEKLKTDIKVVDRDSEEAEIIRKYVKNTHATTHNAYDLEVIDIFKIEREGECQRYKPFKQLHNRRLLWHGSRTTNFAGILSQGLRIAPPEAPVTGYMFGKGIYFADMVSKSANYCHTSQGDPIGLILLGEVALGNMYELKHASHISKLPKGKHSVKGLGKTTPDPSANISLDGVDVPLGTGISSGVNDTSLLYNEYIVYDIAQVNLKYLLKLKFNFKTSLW

Row | Structure (SMILES) | IC50 [µM]
1 | O=c1[nH]c2ccccc2c2ccccc12 | 0.52
2 | Cc1cccc2c(=O)[nH]c3cc(C(F)(F)F)c([N+](=O)[O-])cc3c12 | 0.136
3 | Cc1cccc2c(O)nc3cc(F)ccc3c12 | 0.092
4 | O=c1[nH]c2ccc([N+](=O)[O-])cc2c2ccccc12 | 0.156
5 | O=C(O)c1cccc2c(O)nc3ccccc3c12 | > 60
6 | O=C(O)c1ccc2c(c1)[nH]c(=O)c1ccccc12 | 0.057
7 | Nc1ccc2[nH]c(=O)c3ccccc3c2c1 | 0.18
8 | O=c1[nH]c2cc(S(=O)(=O)O)ccc2c2ccc(F)cc12 | 0.01
9 | O=S(=O)(O)c1ccc2c(c1)nc(O)c1cc(S(=O)(=O)O)ccc12 | > 100
10 | Nc1cc2[nH]c(=O)c3ccccc3c2cc1N | 0.18
